Source: US20060286167A1, “Compositions and methods for the treatment of neurodegenerative diseases” (priority 2005, published 2006)
Structures can show the parent of a compound that is named as a salt. Where two headings read alike, the source gives them in different places. Where no end group is shown, it is not given here.

System: SMN protein in SMA patient fibroblasts (GM03813)
Assay: SMN cytoblot assay (SMN protein levels in SMA patient fibroblasts)
Type: cell-based, human
Excerpt: One method for monitoring SMN protein levels in cells is through use of a cytoblot assay, in which cells are fixed and probed with an antibody against a target protein of interest. We have used a cytoblot assay to determine the concentration of SMN protein in SMA patient fibroblasts, and have identified small molecules that increase SMN protein concentration.
Using the cytoblot assay, we can clearly distinguish SMN protein levels in patient (GM03813) versus carrier fibroblast cells (GM03814), as shown in the FIGS. 1A and 1B.
• 1. Plate 50 μl per well of 300,000 cells/ml (15,000 cells per well) into Nunc white 384-well opaque-bottomed plates. • 2. Incubate plates at 37° C., 5% CO2 overnight. Day 2 • 1. Aspirate media from wells using Tecan plate washer. • 2. Fix cells by adding 20 μl/well of cold methanol (kept in −20° C. freezer). • 3. Incubate plates in 4° C. refrigerator for 10 minutes. • 4. Aspirate methanol using Tecan plate washer. • 5. Add 50 μl/well of primary Ab solution, (BD anti-SMN Ab diluted to 125 ng/ml in 10% fetal goat serum PBST), using multi-drop. • 6. Seal plates and incubate overnight at room temperature. Day 3 • 1. After 16-20 hrs incubation, wash plates with PBST 2× using Tecan plate washer. • 2. Add 50 μl of secondary Ab solution, (Santa Cruz goat anti-Mouse-HRP diluted to 67 ng/ml in 10% fetal goat serum PBST). • 3. Seal plates and incubate 2 hrs at room temperature. • 4. Wash plates with PBST 2× using Tecan plate washer. • 5. Add 50 μl/well 10% fetal goat serum PBST. • 6. Incubate in 4° C. refrigerator for 10 minutes. • 7. Aspirate plates using plate washer and add ECL luminescence solution, 20 μl/well. • 8. Measure luminescence on plate reader. Automated Scoring
We scored each compound based on the maximum signal-to-noise ratio (SNR) found among its dose curves. These scores are based on edge-corrected SMN data, using only plates that passed quality control. The untreated level on each plate was found by taking the median of the untreated wells, and for each treated well we calculated a log(T/U) ratio. Each curve was generated in triplicate on each plate, so each point on a compound's dose curve was obtained by determining the median for the replicate points. Each ratio thus has an error estimate from the scatter between the triplicate data points (1.5 times the median absolute deviation from the median). For each dose curve, we calculated the SNR for each data point log(T/U)/error, and chose the maximum point as our indicator of SMN induction activity. Since this is a signal-to-noise score, scores much greater than one indicate significant activity, assuming normal statistics. We decided to use a cutoff signal-to-noise ratio of 6. This selection represents a considerable enrichment towards visually-selected compounds. We identified 100 out of 2000 compounds producing scores >6. This included 13 of the 28 visual selections.

[1] = maximum signal-to-noise ratio log(T/U)/error among a compound's dose curves, SMN cytoblot, cutoff 6, column Scoring says Automated or Visual selection

Molecule	SNR [1]	SNR
CCCN1C[C@H](CSC)C[C@@H]2c3cccc4[nH]cc(c34)C[C@H]21 [Pergolide Mesylate]	7.69	–
C1CNCCN1.O=C(O)CC(O)(CC(=O)O)C(=O)O [Piperazine Citrate]	–	6.68
CC(C)NCC(O)COc1cccc2ccccc12 (centres unmarked) [Propranolol Hydrochloride]	7.38	–
CN1CCCN=C1/C=C/c1cccs1 [Pyrantel Pamoate]	6.22	–
CN(C)C(=O)Oc1ccc[n+](C)c1 [Pyridostigmine Bromide]	6.19	–
COC(=O)[C@H]1[C@H]2C[C@@H]3c4[nH]c5cc(OC)ccc5c4CCN3C[C@H]2C[C@@H](OC(=O)/C=C/c2cc(OC)c(OC)c(OC)c2)[C@@H]1OC [Rescinnamine]	6.3	–
C=CCSC[C@H](N)C(=O)O [S-Allyl-L-Cysteine]	9.02	–
S=[Se]=S [Selenium Sulfide]	7.08	–
NCCc1c[nH]c2ccc(O)cc12 [Serotonin]	6.15	–
CN[C@@H]1[C@H](O)[C@H](NC)[C@H]2O[C@@]3(O)C(=O)C[C@@H](C)O[C@H]3O[C@@H]2[C@H]1O [Spectinomycin]	11	–
O=c1[nH]c(=O)n(C2CCCO2)cc1F (centres unmarked) [Tegafur]	6.74	–
CCN(CC)CCNC(=O)c1cc(S(C)(=O)=O)ccc1OC [Tiapride]	10.5	–
C/C=C/c1ccc(OC)cc1 [Trans-Anethole]	8.35	–
C[C@H](CCC(=O)O)[C@H]1CC[C@H]2[C@@H]3[C@@H](O)C[C@@H]4C[C@H](O)CC[C@]4(C)[C@H]3CC[C@]12C [Ursodiol]	9.2	–
CC[C@]12CCCN3CCc4c(n(c5ccccc45)[C@@](O)(C(=O)OC)C1)[C@@H]32 [Vincamine]	6.94	–
CCCCCC(Br)C(=O)O (stereo not drawn) [alpha-Bromohepyanoic acid]	8.41	–
Calcitonin (CGNLSTCMLGTYTQDFNKFHTFPQTAIGVGAP; ends and bridges not checked; cysteine pairing not given here; UniProt P01258 85-116, looked up)	7.46	–
Chymopapain	6.83	–
Dibekacin Sulfate Salt	6.79	–
Ferric Ammonium Citrate	–	19.4
Ferrous Sulfate	–	7.55
Gentamicin Sulfate	14.9	–
Neomycin Sulfate	7.96	–
Nonoxynol-9	7	–
Teicoplanin	9.72	–
[2-(hexahydro-1 (2H)-azocinyl)ethyl]guanidine [Guanethidine Monosulfate]	11.3	–
